Several values for one entry are separate records, joined by “and”; a condition that tells them apart may be missing. Identical values can stand only once. Inconclusive results and toxic doses are left out. No stated cut-off is given here; in the data, active means T/C of 150% or more; inactive means T/C below 125%. Square brackets hold non-standard residues; d marks the D form. Peptide text beside a SMILES is read from it. * marks the point of attachment. ξ: configuration not given here. Cbz = O=C(OCc1ccccc1)*; ξNva = CCCC(N)C(=O)O
Test system: L1210 leukemia ip in BDF1 mice, survival T/C
Assay: NCI In Vivo Anticancer Drug Screen. Data for tumor model L1210 Leukemia (intraperitoneal) in B6D2F1 (BDF1) mice
Settings: endpoint: mean survival time, higher = longer survival
In short: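 Mice bearing the transplanted tumor received compound or vehicle. Survival of the treated group was divided by that of the vehicle-treated control group to give the ratio.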

[1] = dose: 100.0 mg/kg/injection, schedule: Q01DX001 (ip), vehicle: saline with Tween-80
[2] = dose: 200.0 mg/kg/injection, schedule: Q01DX001 (ip), vehicle: saline with Tween-80
[3] = dose: 400.0 mg/kg/injection, schedule: Q01DX001 (ip), vehicle: saline with Tween-80
[4] = dose: 100.0 mg/kg/injection, schedule: Q01DX001 (ip), vehicle: carboxymethylcellulose (CMC)
[5] = dose: 200.0 mg/kg/injection, schedule: Q01DX001 (ip), vehicle: carboxymethylcellulose (CMC)
[6] = dose: 100.0 mg/kg/injection, schedule: Q01DX001 (ip), vehicle: saline
[7] = dose: 100.0 mg/kg/injection, schedule: Q01DX009 (ip), vehicle: saline
[8] = dose: 100.0 mg/kg/injection, schedule: Q04DX003 (ip), vehicle: saline
[9] = dose: 200.0 mg/kg/injection, schedule: Q01DX001 (ip), vehicle: saline
[10] = dose: 200.0 mg/kg/injection, schedule: Q01DX009 (ip), vehicle: saline
[11] = dose: 200.0 mg/kg/injection, schedule: Q04DX003 (ip), vehicle: saline
[12] = dose: 400.0 mg/kg/injection, schedule: Q01DX001 (ip), vehicle: saline
[13] = dose: 400.0 mg/kg/injection, schedule: Q04DX003 (ip), vehicle: saline
[14] = dose: 100.0 mg/kg/injection, schedule: Q01DX009 (ip), vehicle: saline with Tween-80
[15] = dose: 100.0 mg/kg/injection, schedule: Q04DX003 (ip), vehicle: saline with Tween-80
[16] = dose: 200.0 mg/kg/injection, schedule: Q01DX009 (ip), vehicle: saline with Tween-80
[17] = dose: 200.0 mg/kg/injection, schedule: Q04DX003 (ip), vehicle: saline with Tween-80
[18] = dose: 400.0 mg/kg/injection, schedule: Q01DX009 (ip), vehicle: saline with Tween-80
[19] = dose: 100.0 mg/kg/injection, schedule: Q01DX009 (ip), vehicle: Klucel (hydroxypropylcellulose) (HPC)
[20] = dose: 100.0 mg/kg/injection, schedule: Q04DX003 (ip), vehicle: Klucel (hydroxypropylcellulose) (HPC)
[21] = dose: 200.0 mg/kg/injection, schedule: Q01DX009 (ip), vehicle: Klucel (hydroxypropylcellulose) (HPC)
[22] = dose: 200.0 mg/kg/injection, schedule: Q04DX003 (ip), vehicle: Klucel (hydroxypropylcellulose) (HPC)
[23] = dose: 400.0 mg/kg/injection, schedule: Q04DX003 (ip), vehicle: Klucel (hydroxypropylcellulose) (HPC)
[24] = dose: 50.0 mg/kg/injection, schedule: Q04DX003 (ip), vehicle: Klucel (hydroxypropylcellulose) (HPC)
[25] = dose: 50.0 mg/kg/injection, schedule: Q01DX009 (ip), vehicle: saline with Tween-80
[26] = dose: 75.0 mg/kg/injection, schedule: Q01DX001 (ip), vehicle: saline
[27] = dose: 150.0 mg/kg/injection, schedule: Q01DX001 (ip), vehicle: saline

Measured: T/C

CC12CCC(O)CC1=CC=C1C2CCC2(C)C(OC(=O)c3ccccc3)CCC12 (stereo unspecified)
inactive: [1] 91 % of control | [2] 93 % of control | [3] 98 % of control

NNc1ccc2cccc(O)c2n1
inactive: [4] 90 % of control | [5] 93 % of control

CC(C)(O)C(O)c1ccccc1 (stereo unspecified)
inactive: [6] 103 % of control | [7] 98 % of control | [8] 97 % of control | [9] 101 % of control | [10] 93 % of control | [11] 97 % of control | [12] 95 % of control | [13] 100 % of control

CCOC(=O)c1c(N)sc2c1CCC2
inactive: [1] 110 % of control | [7] 102 % of control | dose: 100.0 mg/kg/injection, schedule: Q04DX002 (ip), vehicle: saline 93 % of control | [2] 103 % of control | [10] 107 % of control | dose: 200.0 mg/kg/injection, schedule: Q04DX002 (ip), vehicle: saline 96 % of control | [3] 98 % of control | dose: 400.0 mg/kg/injection, schedule: Q04DX002 (ip), vehicle: saline 89 % of control

ICc1ccc(CI)cc1
inactive: dose: 25.0 mg/kg/injection, schedule: Q01DX009 (ip), vehicle: saline 100 % of control | dose: 100.0 mg/kg/injection, schedule: Q01DX001 (ip), vehicle: other 106 % of control | dose: 100.0 mg/kg/injection, schedule: Q04DX003 (ip), vehicle: acetone 106 % of control | dose: 200.0 mg/kg/injection, schedule: Q01DX001 (ip), vehicle: other 88 % of control | dose: 400.0 mg/kg/injection, schedule: Q01DX001 (ip), vehicle: other 88 % of control

Cc1ccc(N)cc1NC(=O)c1ccccc1
inactive: [4] 106 % of control | [5] 94 % of control | dose: 400.0 mg/kg/injection, schedule: Q01DX001 (ip), vehicle: carboxymethylcellulose (CMC) 108 % of control

CN(O)CC(=O)O
inactive: [6] 95 % of control | [9] 98 % of control | [12] 97 % of control

CC(=O)N1C(=O)NC(=O)C1(C)c1ccco1 (stereo unspecified)
inactive: [14] 103 % of control | [15] 94 % of control | [16] 100 % of control | [17] 97 % of control | [18] 97 % of control | dose: 400.0 mg/kg/injection, schedule: Q04DX003 (ip), vehicle: saline with Tween-80 105 % of control

Cc1[nH]c(=O)[nH]c(=O)c1C
inactive: [19] 106 % of control | [20] 102 % of control | [21] 103 % of control | [22] 98 % of control | dose: 400.0 mg/kg/injection, schedule: Q01DX009 (ip), vehicle: Klucel (hydroxypropylcellulose) (HPC) 93 % of control | [23] 91 % of control

COC(=N)Cc1ccc(OC)c(OC)c1
inactive: [14] 94 % of control | [16] 89 % of control | [18] 92 % of control

CCOC(=O)Cc1ccc([N+](=O)[O-])cc1
inactive: dose: 25.0 mg/kg/injection, schedule: Q04DX003 (ip), vehicle: Klucel (hydroxypropylcellulose) (HPC) 94 % of control | [24] 105 % of control | [20] 104 % of control and 105 % of control | dose: 150.0 mg/kg/injection, schedule: Q04DX003 (ip), vehicle: Klucel (hydroxypropylcellulose) (HPC) 107 % of control | dose: 225.0 mg/kg/injection, schedule: Q04DX003 (ip), vehicle: Klucel (hydroxypropylcellulose) (HPC) 100 % of control

O=C(C[n+]1ccccc1)N/N=C/c1ccc(O)c(O)c1
inactive: [25] 104 % of control | [14] 106 % of control | [15] 110 % of control | [16] 117 % of control | [17] 110 % of control

CCOC(=O)C(Cc1cc(C(C)(C)C)c(O)c(C(C)(C)C)c1)(NC=O)C(=O)OCC
inactive: dose: 50.0 mg/kg/injection, schedule: Q01DX009 (ip), vehicle: Klucel (hydroxypropylcellulose) (HPC) 103 % of control | [19] 100 % of control | [21] 96 % of control

C=C(C)C1(CCC)C(=O)NC(=S)NC1=O
inactive: [26] 107 % of control | [27] 111 % of control | dose: 300.0 mg/kg/injection, schedule: Q01DX001 (ip), vehicle: saline 116 % of control

CN(C)C(=S)N=Nc1ccccc1
inactive: [25] 92 % of control | dose: 50.0 mg/kg/injection, schedule: Q01DX009 (ip), vehicle: saline 97 % of control | [14] 100 % of control | [7] 100 % of control | [16] 100 % of control | [10] 107 % of control

O=C(NNC(=S)Nc1ccccc1Cl)c1ccncc1
inactive: dose: 75.0 mg/kg/injection, schedule: Q01DX009 (ip), vehicle: Klucel (hydroxypropylcellulose) (HPC) 93 % of control | dose: 150.0 mg/kg/injection, schedule: Q01DX009 (ip), vehicle: Klucel (hydroxypropylcellulose) (HPC) 97 % of control | dose: 300.0 mg/kg/injection, schedule: Q01DX009 (ip), vehicle: Klucel (hydroxypropylcellulose) (HPC) 101 % of control

Clc1cccc(/C=N/Nc2nnc(N/N=C/c3cccc(Cl)c3)c3ccccc23)c1
inactive: dose: 50.0 mg/kg/injection, schedule: Q01DX001 (ip), vehicle: saline 100 % of control | [6] 103 % of control | [9] 100 % of control | [12] 100 % of control

CC(C)C(C)(O)C#N (stereo unspecified)
inactive: dose: 5.0 mg/kg/injection, schedule: Q01DX001 (ip), vehicle: saline 92 % of control | dose: 10.0 mg/kg/injection, schedule: Q01DX001 (ip), vehicle: saline 97 % of control | dose: 20.0 mg/kg/injection, schedule: Q01DX001 (ip), vehicle: saline 100 % of control

c1ccc(-c2csc(-c3nc(-c4ccccc4)cs3)n2)cc1
inactive: [20] 90 % of control | [22] 95 % of control | [23] 102 % of control

COC(=O)/C=C/c1cccnc1
inactive: [24] 103 % of control | [20] 93 % of control | [22] 103 % of control

C#CCOCCC(C(=O)OCC)C(=O)OCC
inactive: [7] 96 % of control | [10] 91 % of control | dose: 400.0 mg/kg/injection, schedule: Q01DX009 (ip), vehicle: saline 102 % of control

CC[N+](C)(CC)CCSC(=O)Nc1ccc(Cc2ccc(NC(=O)SCC[N+](C)(CC)CC)cc2)cc1
inactive: dose: 10.0 mg/kg/injection, schedule: Q04DX003 (ip), vehicle: Klucel (hydroxypropylcellulose) (HPC) 96 % of control | dose: 12.5 mg/kg/injection, schedule: Q01DX009 (ip), vehicle: Klucel (hydroxypropylcellulose) (HPC) 103 % of control | dose: 20.0 mg/kg/injection, schedule: Q04DX003 (ip), vehicle: Klucel (hydroxypropylcellulose) (HPC) 96 % of control

CCCC[n+]1ccc(C#N)cc1
inactive: [26] 103 % of control | [27] 95 % of control

CCCC(NC(=O)CNC(=O)CNC(=O)OCc1ccccc1)C(=O)O (stereo not drawn) (Cbz-Gly-Gly-[ξNva]-OH)
inactive: [20] 101 % of control | [22] 106 % of control | [23] 106 % of control

C1=NCCCN2CCCCC12 (stereo unspecified)
inactive: dose: 2.35 mg/kg/injection, schedule: Q01DX009 (ip), vehicle: Klucel (hydroxypropylcellulose) (HPC) 92 % of control | dose: 4.69 mg/kg/injection, schedule: Q01DX009 (ip), vehicle: Klucel (hydroxypropylcellulose) (HPC) 92 % of control | dose: 9.38 mg/kg/injection, schedule: Q01DX009 (ip), vehicle: Klucel (hydroxypropylcellulose) (HPC) 97 % of control | dose: 18.75 mg/kg/injection, schedule: Q01DX009 (ip), vehicle: Klucel (hydroxypropylcellulose) (HPC) 106 % of control

CCC(C1=NC(C)(C)CO1)c1ccccc1Br (stereo unspecified)
inactive: [8] 97 % of control | [11] 98 % of control | [13] 88 % of control

CCCCNc1c(NCCCC)c(=O)c1=O
inactive: [20] 90 % of control | [22] 90 % of control | [23] 91 % of control

Source: PubChem BioAssay AID248 (DTP/NCI, 2004)
